The record followed here is patent publication US6380245B1, “Antibiotics TKR1912-I and TKR1912-II and process for producing the same” (Takara Shuzo Co., Ltd., priority 1995, dated 2002).

Data set [1] relates to Aspergillus fumigatus TIMM1776. Nature of the data set: Antifungal spectrum, liquid medium dilution method. It is filed as cell-based. As for the experimental part:
(§1) The antifungal spectra of the above TKR1912-I and TKR1912-II against various microorganisms were determined. Using the liquid medium dilution method, the concentration causing a substantially complete inhibition of fungal growth was determined as minimal inhibitory concentration (μg/ml). Moreover, the minimal concentration (μg/ml) causing partial growth inhibition was determined and the results are presented in parentheses in Table 2. In the table, YNBG stands for YNBG medium comprising 0.67% of yeast nitrogen base (Difco) and 1.0% of glucose and BHI stands for BHI medium comprising brain-heart infusion bouillon (Nissui Pharmaceutical).

The test system of data set [2] is Candida albicans TIMM0136. Nature of the data set: Antifungal spectrum, liquid medium dilution method. The class given is cell-based. On the procedure:
as §1

Data set [3] relates to Candida kefyr TIMM0301. The data set is described as follows: Antifungal spectrum, liquid medium dilution method. It is filed as cell-based. The conditions noted are these: for MIC: Kluyveromyces marxianus. As for the experimental part:
as §1

Data set [4] deals with Cryptococcus neoformans TIMM0354. The data set is described as follows: Antifungal spectrum, liquid medium dilution method. The class given is cell-based. As for the experimental part:
as §1

For data set [5], the system named is ICR mice. Nature of the data set: Toxicity after intraperitoneal administration to ICR mice. It is filed as in vivo. Particulars: 50 mg/kg.
Data set [6] is described as follows: Solubility in solvents. It is filed as physicochemical.
The mark [7] stands for this setting: Aspergillus fumigatus TIMM1776, BHI medium.
The mark [8] stands for this setting: Candida albicans TIMM0136, YNBG medium.
[9] abbreviates: Candida kefyr TIMM0301, YNBG medium.

≈ marks a conversion by molar mass, not a printed value. Like-named read-outs stand apart in the source and are kept apart here. A value given as a limit tells only on which side of the number the result lay.

As to `CCCCCCCC/C=C/CC/C=C/C1CC(C(=O)O)C(CC(=O)O)(C(=O)OC(C(=O)O)C(CC(=O)O)C(=O)O)O1` (stereo not drawn) [TKR1912-II], the “minimal concentration causing partial growth inhibition (in parentheses)” value is “(25) μg/ml” in data set [1] (setting [7]); “(0.78) μg/ml” in data set [2] (setting [8]); “(1.56) μg/ml” in data set [3] (setting [9]); “(6.25) μg/ml” in data set [4] (Cryptococcus neoformans TIMM0354, YNBG medium). Further, the MIC in data set [1] (Aspergillus fumigatus, TIMM1776, read-out: Minimal inhibitory concentration (substantially complete inhibition of fungal growth)) is greater than 100 µg/mL; in data set [2] (Candida albicans, TIMM0136, read-out: Minimal inhibitory concentration (substantially complete inhibition of fungal growth)), 3.13 µg/mL (≈ 5.35 µM); in data set [3] (TIMM0301, read-out: Minimal inhibitory concentration (substantially complete inhibition of fungal growth)) it was 3.13 µg/mL (≈ 5.35 µM); in data set [4] (Cryptococcus neoformans, TIMM0354, read-out: Minimal inhibitory concentration (substantially complete inhibition of fungal growth)), greater than 100 µg/mL. Further, in data set [5], the toxic signs result is “no toxic signs”. In data set [6], the solubility in hexane entry was “practically insoluble”. In data set [6], the “solubility in methanol, chloroform, and water” value is “soluble”.

For the compound `CCCCCCCCCC/C=C/C1CC(C(=O)O)C(CC(=O)O)(C(=O)OC(C(=O)O)C(CC(=O)O)C(=O)O)O1` (stereo not drawn) [TKR1912-I], the “minimal concentration causing partial growth inhibition (in parentheses)” value in data set [1] (setting [7]) is reported as “(100) μg/ml”; in data set [2] (setting [8]) it was “(1.56) μg/ml”; in data set [3] (setting [9]) it was “(6.25) μg/ml”. The MIC in data set [1] (Aspergillus fumigatus TIMM1776, BHI medium, read-out: Minimal inhibitory concentration (substantially complete inhibition of fungal growth)) is greater than 100 µg/mL; in data set [2] (Candida albicans TIMM0136, YNBG medium, read-out: Minimal inhibitory concentration (substantially complete inhibition of fungal growth)), 3.13 µg/mL (≈ 5.6 µM); in data set [3] (Candida kefyr TIMM0301, YNBG medium, read-out: Minimal inhibitory concentration (substantially complete inhibition of fungal growth)), 12.5 µg/mL (≈ 22.4 µM); in data set [4] (Cryptococcus neoformans TIMM0354, YNBG medium, read-out: Minimal inhibitory concentration (substantially complete inhibition of fungal growth)) it was 6.25 µg/mL (≈ 11.2 µM). Also, the toxic signs result in data set [5] is listed as “no toxic signs”. Further, the solubility in hexane result in data set [6] is given as “practically insoluble”. In data set [6], the “solubility in methanol, chloroform, and water” value is given as “soluble”.
